{"source": "patent US9993554B2", "about": "(CENTRO NACIONAL DE INVESTIGACIONES ONCOLOGICAS (CNIO), priority 2010, dated 2018)", "key": {"phospho-Ser-473-Akt": {"test_system": "phospho-Ser-473-Akt", "experiment": "AKT phosphorylation inhibition, Western blot cell assay", "assay_type": "cell-based", "conditions": "Homo sapiens; read-out: IC50, cell assay (p-AKT Western Blot)", "method": "The cell lines were obtained from the American Type Culture Collection (ATCC). U2OS (human osteosarcoma) was cultured in Dulbecco's modified Eagle's medium (DMEM). PC3 (human prostate carcinoma), MCF7 (human breast cardinoma), HCT116 (human colon carcinoma), 768-0 (human neuroblastoma), U251 (human glyoblastoma) were grown in RPMI. All media were supplemented with 10% fetal bovine serum (FBS) (Sigma) and antibiotics-antimycotics. Cell were maintained in a humidified incubator at 37° C. with 5% CO2 and passaged when confluent using trypsin/EDTA.\nSubconfluent cells were incubated under different conditions and washed twice with TBS prior to lysis. Lysis buffer was added containing 50 mM Tris HCl, 150 mM NaCl, 1% NP-40, 2 mM Na3VO4, 100 mM NaF, 20 mM Na4P2O7 and protease inhibitor cocktail (Roche Molecular Biochemicals). The proteins were resolved on 10% SDS-PAGE and transferred to nitrocellulose membrane (Schleicher & Schuell, Dassel, Germany). The membranes were incubated overnight at 4° C. with antibodies specific for Akt, phospho-Ser-473-Akt (Cell Signaling Technology) and α-tubulin (Sigma), they were washed and then incubated with IRDye800 conjugated anti-mouse and Alexa Fluor 680 goat anti-rabbit IgG secondary antibodies. The bands were visualized using an Odyssey infrared imaging system (Li-Cor Biosciences)."}, "PI3K isoform p110γ": {"molecular_target": "PI3K isoform p110γ (Homo sapiens, UniProt P48736)", "sequence (P48736 whole entry, canonical isoform)": "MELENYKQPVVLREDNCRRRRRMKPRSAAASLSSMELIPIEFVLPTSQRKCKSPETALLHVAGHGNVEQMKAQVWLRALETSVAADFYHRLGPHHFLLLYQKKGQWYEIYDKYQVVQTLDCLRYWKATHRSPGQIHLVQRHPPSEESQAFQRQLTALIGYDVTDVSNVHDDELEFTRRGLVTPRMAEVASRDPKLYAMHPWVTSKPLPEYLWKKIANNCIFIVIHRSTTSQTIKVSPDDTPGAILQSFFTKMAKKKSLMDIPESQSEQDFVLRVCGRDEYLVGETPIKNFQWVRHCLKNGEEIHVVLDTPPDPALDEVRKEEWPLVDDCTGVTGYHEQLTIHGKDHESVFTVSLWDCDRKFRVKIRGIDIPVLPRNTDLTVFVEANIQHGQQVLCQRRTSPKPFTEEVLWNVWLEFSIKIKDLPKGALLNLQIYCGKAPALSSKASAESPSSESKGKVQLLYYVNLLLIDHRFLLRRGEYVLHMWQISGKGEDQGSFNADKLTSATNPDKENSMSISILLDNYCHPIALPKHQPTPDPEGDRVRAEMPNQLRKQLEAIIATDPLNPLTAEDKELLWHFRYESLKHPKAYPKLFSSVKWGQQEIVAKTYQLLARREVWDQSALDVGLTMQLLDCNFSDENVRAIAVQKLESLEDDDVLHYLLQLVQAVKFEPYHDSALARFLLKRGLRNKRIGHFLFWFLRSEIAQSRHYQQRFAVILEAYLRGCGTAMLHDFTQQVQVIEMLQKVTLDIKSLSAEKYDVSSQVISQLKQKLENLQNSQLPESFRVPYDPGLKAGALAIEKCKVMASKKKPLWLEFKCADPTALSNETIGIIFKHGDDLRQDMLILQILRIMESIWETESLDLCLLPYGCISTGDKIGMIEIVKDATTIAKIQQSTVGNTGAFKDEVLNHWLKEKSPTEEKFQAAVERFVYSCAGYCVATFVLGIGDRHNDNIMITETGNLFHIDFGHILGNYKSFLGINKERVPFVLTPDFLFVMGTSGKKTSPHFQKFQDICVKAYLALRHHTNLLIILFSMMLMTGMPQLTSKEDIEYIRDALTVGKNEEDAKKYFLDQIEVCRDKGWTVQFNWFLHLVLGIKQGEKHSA", "experiment": "Inhibition of PI3K isoform p110γ", "assay_type": "biochemical"}, "PI3K isoform p110δ": {"molecular_target": "PI3K isoform p110δ (Homo sapiens, UniProt O00329)", "sequence (O00329 whole entry, canonical isoform)": "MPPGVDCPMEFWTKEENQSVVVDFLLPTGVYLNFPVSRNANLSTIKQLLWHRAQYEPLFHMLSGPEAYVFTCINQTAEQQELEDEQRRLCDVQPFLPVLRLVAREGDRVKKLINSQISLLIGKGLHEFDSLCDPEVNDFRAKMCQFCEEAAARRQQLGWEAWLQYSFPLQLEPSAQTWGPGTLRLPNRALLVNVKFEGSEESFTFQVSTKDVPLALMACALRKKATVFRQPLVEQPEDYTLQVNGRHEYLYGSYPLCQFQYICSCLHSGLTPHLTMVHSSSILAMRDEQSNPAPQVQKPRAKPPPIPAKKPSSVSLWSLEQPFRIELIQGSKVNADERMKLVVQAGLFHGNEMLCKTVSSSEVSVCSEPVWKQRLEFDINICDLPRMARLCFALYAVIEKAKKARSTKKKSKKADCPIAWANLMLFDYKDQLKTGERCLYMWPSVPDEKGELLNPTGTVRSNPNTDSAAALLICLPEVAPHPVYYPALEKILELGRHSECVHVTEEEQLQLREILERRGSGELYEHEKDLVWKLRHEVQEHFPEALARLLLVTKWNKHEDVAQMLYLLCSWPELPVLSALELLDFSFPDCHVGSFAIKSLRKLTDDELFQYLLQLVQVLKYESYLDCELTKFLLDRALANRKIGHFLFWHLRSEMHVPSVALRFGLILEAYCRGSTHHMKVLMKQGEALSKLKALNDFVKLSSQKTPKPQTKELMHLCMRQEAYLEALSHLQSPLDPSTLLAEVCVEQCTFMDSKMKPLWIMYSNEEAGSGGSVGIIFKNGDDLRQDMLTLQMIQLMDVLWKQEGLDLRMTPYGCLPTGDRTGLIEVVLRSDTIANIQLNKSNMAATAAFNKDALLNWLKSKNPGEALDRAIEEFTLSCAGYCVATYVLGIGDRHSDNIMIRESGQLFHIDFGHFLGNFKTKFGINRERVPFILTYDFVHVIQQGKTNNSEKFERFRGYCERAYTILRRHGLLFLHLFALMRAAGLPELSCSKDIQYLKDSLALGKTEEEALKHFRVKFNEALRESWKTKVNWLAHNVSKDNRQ", "sequence (P27986 whole entry partner, canonical isoform)": "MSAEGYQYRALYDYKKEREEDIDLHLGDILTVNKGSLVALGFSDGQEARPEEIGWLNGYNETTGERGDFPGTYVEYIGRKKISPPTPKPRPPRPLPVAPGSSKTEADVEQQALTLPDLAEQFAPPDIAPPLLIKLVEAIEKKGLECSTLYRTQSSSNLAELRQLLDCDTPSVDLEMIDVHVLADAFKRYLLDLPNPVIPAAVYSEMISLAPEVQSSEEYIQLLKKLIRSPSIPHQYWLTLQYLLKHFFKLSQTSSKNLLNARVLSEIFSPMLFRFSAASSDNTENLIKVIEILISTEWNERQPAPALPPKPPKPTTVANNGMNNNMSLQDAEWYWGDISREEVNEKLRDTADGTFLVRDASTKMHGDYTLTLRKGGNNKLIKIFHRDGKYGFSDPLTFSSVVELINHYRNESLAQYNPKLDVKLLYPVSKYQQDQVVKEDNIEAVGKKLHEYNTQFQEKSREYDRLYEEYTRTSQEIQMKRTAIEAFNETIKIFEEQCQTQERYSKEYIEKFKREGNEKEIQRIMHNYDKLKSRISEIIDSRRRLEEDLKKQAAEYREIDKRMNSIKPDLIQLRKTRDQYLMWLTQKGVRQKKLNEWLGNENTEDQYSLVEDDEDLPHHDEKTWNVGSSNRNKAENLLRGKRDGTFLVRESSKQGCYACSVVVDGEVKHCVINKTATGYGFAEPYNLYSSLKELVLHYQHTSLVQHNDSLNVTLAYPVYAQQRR", "experiment": "Inhibition of PI3K isoform p110δ", "assay_type": "biochemical"}, "[1]": {"test_system": "obese mice under high-fat diet", "experiment": "Adiposity by dual X-ray absorptiometry (DXA) in treated obese mice", "assay_type": "in vivo", "conditions": "2 weeks treatment", "method": "Mice treated as in FIG. 22 were subjected to dual X-ray absorptiometry (DXA) to determine their relative content of fat and lean tissues (the head and the bone mass is not measured). Determinations were performed one week before starting the treatment (day −7 or D−7), in the middle of the 2 weeks treatment (day 7 or D7, and at the end of the treatment (day 14 or D14). The content of fat is expressed as the percentage of fat relative to the combined fat and lean mass (upper panel). The absolute lean mass is also shown (lower panel). The two panels include data from the assay shown in FIG. 22, as well as the data from our previous assay with Compound A at 15 mg/kg. The percentage of fat and the lean mass of non-obese littermates (always fed with standard diet, SD) is shown in orange for reference.\nMice were fed either with a standard chow diet (Harlan Teklad 2018, 18% calories from fat) or, when indicated, with a high fat diet (Research Diets D12451, 45% of total calories from fat). To measure food intake, mice were housed in metabolic cages during 5 days, and food and water intake, as well as, the output of faeces and urine were measured during the last 4 days. Body composition (fat and lean content) was determined by Dual energy X-ray Absorptiometry (DXA) (Lunar PIXImus Densitometer, GE Medical Systems). […]"}, "[2]": {"test_system": "SCID mice bearing human NSCLC A549 lung tumors", "experiment": "Body weight of SCID mice bearing A549 lung tumor xenografts", "assay_type": "in vivo", "conditions": "22 mg/kg orally, 9 doses, SCID mice with A549 xenografts", "method": "FIG. 41. Body weight evolution of SCID mice bearing human NSCLC A549 lung tumors when treated with Compound A orally, 9 doses of 22 mg/Kg during day 15th and 30th, versus compounds treated with vehicle.\nIn “normal conditions” no body weight loss is observed."}, "[3]": {"test_system": "brown adipose tissue (BAT) of C57BL6 mice", "experiment": "In vivo inhibition of PI3K: mRNA levels in BAT", "conditions": "15 mg/kg by gavage, 6 h, C57BL6 males", "method": "For in vitro assays Compound A was added at a concentration of 1 μM. For in vivo assays, Compound A″ was administered orally by gavage at a dose of 15 mg/kg. Mice were sacrificed 6 h after and tissues were extracted and analyzed. Treated mice were C57BL6 males, 3 months old.\nTotal RNA from tissues or fibroblasts was extracted using TRIZOL (Invitrogen). Reverse transcription was performed using random primers and Ready-To-Go™ You-Prime First-Strand Beads (GE Healthcare). Quantitative real time-PCR was performed using DNA Master Sybr Green I mix (Applied Biosystems) in an ABI PRISM 7700 thermocycler (Applied Biosystem). Primer sequences are described in Supp."}, "PI3K (p110α/p85α)": {"molecular_target": "T1, PI3K (p110α/p85α) (Homo sapiens, UniProt P42336)", "T1 construct": "purchased Carna Biosciences 07CBS-0402A", "T1 sequence (P42336 whole entry)": "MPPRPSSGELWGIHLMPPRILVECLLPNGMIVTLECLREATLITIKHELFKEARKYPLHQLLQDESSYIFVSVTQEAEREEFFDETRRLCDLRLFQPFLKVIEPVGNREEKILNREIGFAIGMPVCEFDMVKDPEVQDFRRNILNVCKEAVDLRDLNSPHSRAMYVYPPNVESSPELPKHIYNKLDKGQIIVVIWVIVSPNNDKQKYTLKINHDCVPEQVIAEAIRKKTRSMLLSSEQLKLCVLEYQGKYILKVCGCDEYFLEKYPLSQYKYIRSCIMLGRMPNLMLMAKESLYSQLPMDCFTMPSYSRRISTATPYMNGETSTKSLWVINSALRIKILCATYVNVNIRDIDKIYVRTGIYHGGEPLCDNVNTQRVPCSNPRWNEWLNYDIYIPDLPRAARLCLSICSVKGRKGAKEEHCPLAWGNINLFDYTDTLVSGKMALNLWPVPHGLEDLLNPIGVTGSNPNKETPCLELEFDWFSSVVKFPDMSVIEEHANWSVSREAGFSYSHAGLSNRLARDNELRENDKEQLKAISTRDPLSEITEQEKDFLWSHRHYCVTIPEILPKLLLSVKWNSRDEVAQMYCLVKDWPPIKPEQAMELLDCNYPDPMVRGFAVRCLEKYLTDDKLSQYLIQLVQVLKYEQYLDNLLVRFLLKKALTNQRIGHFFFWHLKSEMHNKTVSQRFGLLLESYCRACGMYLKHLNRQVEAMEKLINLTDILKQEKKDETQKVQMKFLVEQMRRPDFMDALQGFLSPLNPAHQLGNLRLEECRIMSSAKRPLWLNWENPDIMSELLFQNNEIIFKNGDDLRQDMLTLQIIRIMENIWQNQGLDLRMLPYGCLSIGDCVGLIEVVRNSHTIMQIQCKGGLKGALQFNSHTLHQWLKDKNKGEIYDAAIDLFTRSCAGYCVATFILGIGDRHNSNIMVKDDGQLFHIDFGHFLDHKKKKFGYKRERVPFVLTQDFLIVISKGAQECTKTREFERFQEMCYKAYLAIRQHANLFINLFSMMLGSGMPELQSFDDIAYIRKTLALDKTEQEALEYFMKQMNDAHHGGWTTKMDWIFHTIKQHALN", "T1 sequence (P27986 whole entry partner)": "as the sequence (P27986 whole entry partner, canonical isoform) above", "experiment": "PI3K activity assay (ADP Hunter Plus)", "assay_type": "biochemical", "conditions": "read-out: IC50, PI3K inhibition", "method": "The kinase activity was measured by using the commercial ADP Hunter™ Plus assay available from DiscoveRx (#33-016), which is a homogeneous assay to measure the accumulation of ADP, a universal product of kinase activity. […] Reaction was carried out for 1 hour at 25° C. Reagent A and B were sequentially added to the wells and plates were incubated for 30 min at 37° C. […] Values were normalized against the control activity included for each enzyme (i.e., 100% PI3 kinase activity, without compound). These values were plot against the inhibitor concentration and were fit to a sigmoid dose-response curve by using the Graphad software."}}, "note": "“Also recorded” adds a separate entry of the source.", "data": [{"smiles": "CS(=O)(=O)N1CCN(Cc2cn3c(Cl)c(-c4cnc(N)nc4)nc(N4CCOCC4)c3n2)CC1", "note": "[Compound A]", "values": [{"measurement": "IC50", "setting": "phospho-Ser-473-Akt", "result": 5, "unit": "nM"}, {"measurement": "Ki", "setting": "PI3K isoform p110γ", "result": "> 100", "unit": "nM"}, {"measurement": "Ki", "setting": "PI3K isoform p110δ", "result": 9.8, "unit": "nM"}, {"measurement": "fat mass (DXA)", "setting": "[1]", "result": "loss of fat mass"}, {"measurement": "lean mass (DXA)", "setting": "[1]", "result": "not to a loss of lean mass"}, {"measurement": "body weight of non-obese mice", "setting": "[2]", "result": "no changes in body weight; also recorded: “lack” of weight loss activity"}, {"measurement": "Lcad mRNA in the BAT", "setting": "[3]", "result": "significant upregulation"}, {"measurement": "Pgc1a mRNA in the BAT", "setting": "[3]", "result": "significant upregulation"}, {"measurement": "Ucp1 mRNA in the BAT", "setting": "[3]", "result": "significant upregulation"}, {"measurement": "IC50", "setting": "PI3K (p110α/p85α)", "result": 2.4, "unit": "nM"}]}]}
